Consider two molecules from US20250186408A1, “TREATMENT OF PHARMACORESISTANT EPILEPSY” (Katholieke Universiteit Leuven, priority 2021, published 2025).

The target of test [1] is GABAA (Homo sapiens, UniProt P14867+P18507+P47870). Description: Ion Channel GABAA Blocker. The class given is cell-based. The note with it: read-out: Max response.
Test [2] has as its target T1, CCKAR (Homo sapiens, UniProt P32238).
T1 sequence (P32238 1-428): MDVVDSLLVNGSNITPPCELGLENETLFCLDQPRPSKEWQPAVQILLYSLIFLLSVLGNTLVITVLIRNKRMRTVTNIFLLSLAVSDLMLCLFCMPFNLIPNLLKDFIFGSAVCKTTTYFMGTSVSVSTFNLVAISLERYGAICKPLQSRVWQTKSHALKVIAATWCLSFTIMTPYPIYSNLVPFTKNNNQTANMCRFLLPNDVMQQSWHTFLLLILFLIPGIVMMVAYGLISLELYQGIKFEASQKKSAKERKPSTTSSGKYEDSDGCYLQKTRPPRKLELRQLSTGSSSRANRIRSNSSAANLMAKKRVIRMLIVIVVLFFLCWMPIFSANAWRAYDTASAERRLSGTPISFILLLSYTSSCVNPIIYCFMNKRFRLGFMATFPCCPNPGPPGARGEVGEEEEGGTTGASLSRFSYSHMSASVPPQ
Nature of the test: Calcium Flux CCKAR Agonist. The note with it: for EC50: read-out: RC50, result type EC50; for Emax: read-out: Max response. It is filed as cell-based. The protocol: (≤0.2% DMSO concentration). Assays were performed in 1× dye loading buffer consisting of 1× Dye (DiscoverX, Calcium No Wash^PLUS kit, Catalog No. 90-0091), 1× Additive A and 2.5 mM Probenecid in HBSS/20 mM HEPES. Probenecid was prepared fresh. Prior to testing, media was aspirated from cells and replaced with 25 μL dye loading buffer. Cells were incubated for 45 min at 37° C. and then 20 min at RT. For agonist determination, 25 μL of 2× compound in HBSS/20 mM HEPES was added using a FLIPR Tetra (MDS). […] 25 μL of 2× sample was added and cells were incubated for 30 min at RT in the dark to equilibrate plate temperature. After incubation, antagonist determination was initiated by addition of 25 μL of 1× compound with 3×EC80 agonist using FLIPR. For both agonist and antagonist formats, activity was measure on a FLIPR Tetra (MDS). Calcium mobilization was monitored for 2 min with a 5 sec baseline read.
FLIPR read—Area under the curve, was calculated for the entire 2 min read.

Test [3] has as its target T2, VEGFR2 (Homo sapiens, UniProt P35968).
T2 construct: purchased Eurofins DiscoverX Corporation 87-1003DR; host or cells: E. coli BL21-derived host (T7 phage) or HEK-293
Nature of the test: Binding (KINOMEscan) VEGFR2 Inhibitor. The note with it: for IC50: read-out: RC50, result type IC50; for Emax: read-out: Max response. How it is done: For most assays, kinase-tagged T7 phage strains were grown in parallel in 24-well blocks in an E. coli host derived from the BL21 strain. E. coli were grown to log-phase and infected with T7 phage from a frozen stock (multiplicity of infection=0.4) and incubated with shaking at 32° C. until lysis (90-150 min). The lysates were centrifuged (6,000×g) and filtered (0.2 μm) to remove cell debris. The remaining kinases were produced in HEK-293 cells and subsequently tagged with DNA for qPCR detection. Streptavidin-coated magnetic beads were treated with biotinylated small molecule ligands for 30 min at RT to generate affinity resins for kinase assays. The liganded beads were blocked with excess biotin and washed with blocking buffer (SeaBlock (Pierce), 1% BSA, 0.05% Tween 20, 1 mM DTT) to remove unbound ligand and to reduce non-specific phage binding. […] All reactions were performed in polypropylene 384-well plates in a final volume of 0.02 mL. […] The beads were then re-suspended in elution buffer (1×PBS, 0.05% Tween 20, 0.5 μM non-biotinylated affinity ligand) and incubated at RT with shaking for 30 min. The kinase concentration in the eluates was measured by qPCR.
The kinase concentration in the eluates was measured by qPCR. qPCR reactions were assembled by adding 2.5 μL of kinase eluate to 7.5 μL of qPCR master mix containing 0.15 μM amplicon primers and 0.15 μM amplicon probe. The qPCR protocol consisted of a 10 min hot start at 95° C., followed by 35 cycles of 95° C. for 15 sec, 60° C. for 1 min.
Binding constants (Kds) were calculated with a standard dose-response curve using the Hill equation: […]

The target in test [4] is nAChR (a4/b2) (Homo sapiens, UniProt P17787+P43681). Description: Ion Channel nAChR (a4/b2) Blocker. It is filed as cell-based. The note with it: for Emax: Ion Channel nAChR (a4/b2) Blocker, read-out: Max response.
Sequence of nAChR (a4/b2) (P43681 29-627 limits assumed): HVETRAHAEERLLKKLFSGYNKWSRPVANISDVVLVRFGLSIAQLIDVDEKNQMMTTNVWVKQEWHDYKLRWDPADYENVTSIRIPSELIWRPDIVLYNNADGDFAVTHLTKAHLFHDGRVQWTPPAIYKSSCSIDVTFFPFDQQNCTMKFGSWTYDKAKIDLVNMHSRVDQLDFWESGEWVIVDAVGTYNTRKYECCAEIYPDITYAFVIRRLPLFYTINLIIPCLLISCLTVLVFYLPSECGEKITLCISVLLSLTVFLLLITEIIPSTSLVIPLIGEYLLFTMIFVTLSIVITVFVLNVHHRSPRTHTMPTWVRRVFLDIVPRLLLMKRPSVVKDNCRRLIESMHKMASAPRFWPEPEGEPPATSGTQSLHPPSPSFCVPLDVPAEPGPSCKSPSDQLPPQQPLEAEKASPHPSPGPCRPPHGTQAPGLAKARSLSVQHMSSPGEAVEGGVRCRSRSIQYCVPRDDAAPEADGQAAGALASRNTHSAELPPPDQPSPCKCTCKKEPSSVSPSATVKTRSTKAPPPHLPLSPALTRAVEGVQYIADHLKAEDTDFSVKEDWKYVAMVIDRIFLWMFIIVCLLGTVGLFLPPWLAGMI
Sequence of nAChR (a4/b2) (P17787 26-502): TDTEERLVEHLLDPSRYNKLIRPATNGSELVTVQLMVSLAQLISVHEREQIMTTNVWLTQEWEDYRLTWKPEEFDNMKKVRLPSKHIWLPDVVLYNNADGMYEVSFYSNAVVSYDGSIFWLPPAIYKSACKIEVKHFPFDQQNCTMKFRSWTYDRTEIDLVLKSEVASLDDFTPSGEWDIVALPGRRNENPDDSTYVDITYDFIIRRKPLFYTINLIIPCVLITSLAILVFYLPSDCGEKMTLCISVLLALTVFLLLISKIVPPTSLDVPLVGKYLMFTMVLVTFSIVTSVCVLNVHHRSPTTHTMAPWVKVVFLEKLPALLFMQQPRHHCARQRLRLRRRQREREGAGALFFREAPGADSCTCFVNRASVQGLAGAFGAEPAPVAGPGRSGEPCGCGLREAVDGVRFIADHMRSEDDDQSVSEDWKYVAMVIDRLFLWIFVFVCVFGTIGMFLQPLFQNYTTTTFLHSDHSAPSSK
Test [5] has as its target T3, ADRA1A (Homo sapiens, UniProt P35348).
T3 sequence (P35348 1-466): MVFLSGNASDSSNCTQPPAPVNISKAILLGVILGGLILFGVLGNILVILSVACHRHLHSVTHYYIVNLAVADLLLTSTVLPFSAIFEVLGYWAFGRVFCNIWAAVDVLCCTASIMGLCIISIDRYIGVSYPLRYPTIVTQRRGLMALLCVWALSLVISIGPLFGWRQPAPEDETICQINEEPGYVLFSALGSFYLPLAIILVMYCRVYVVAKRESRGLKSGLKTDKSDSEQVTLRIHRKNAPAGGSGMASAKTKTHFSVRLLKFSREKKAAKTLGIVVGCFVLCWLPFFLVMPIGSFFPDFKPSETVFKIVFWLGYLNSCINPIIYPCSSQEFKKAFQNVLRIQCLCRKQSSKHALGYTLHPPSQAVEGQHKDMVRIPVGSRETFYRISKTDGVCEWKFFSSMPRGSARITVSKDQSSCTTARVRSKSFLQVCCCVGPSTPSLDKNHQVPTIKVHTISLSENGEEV
Description: Calcium Flux ADRA1A Antagonist. The note with it: for Emax: read-out: Max response. Background: Calcium flux is commonly read through the fluorescence of an indicator in the cells.
Description: In vitro pharmacological profiling of compounds was done against 78 functional assays for 47 common off-targets (30) by Eurofins DiscoverX Corporation (Fremont, CA, USA) using their SAFETYscan E/IC50 ELECT service (Cat Ref 87-1003DR, Safety47 Panel Dose Response). […] Compounds were tested in a range of 10 concentrations, following a 3-fold serial dilution, starting from 10 μM. The assays were performed utilizing the PathHunter enzyme fragment complementation (EFC) technology, FLIPR®-based cellular screening assays, and KINOMEscan kinase binding assays.
Prior to testing, cells (10,000 cells/well) were expanded from freezer stocks and seeded into a total volume of 50 μL into black walled, clear-bottom, Poly-D-lysine coated 384-well microplates and incubated at 37° C. […] Assays were performed in 1× dye loading buffer consisting of 1× Dye (DiscoverX, Calcium No Wash^PLUS kit, Catalog No. 90-0091), 1× Additive A and 2.5 mM Probenecid in HBSS/20 mM HEPES. Probenecid was prepared fresh. Prior to testing, media was aspirated from cells and replaced with 25 μL dye loading buffer. Cells were incubated for 45 min at 37° C. and then 20 min at RT. For agonist determination, 25 μL of 2× compound in HBSS/20 mM HEPES was added using a FLIPR Tetra (MDS). For antagonist determination, cells were pre-incubated with sample followed by agonist challenge at the EC80 concentration. 25 μL of 2× sample was added and cells were incubated for 30 min at RT in the dark to equilibrate plate temperature. After incubation, antagonist determination was initiated by addition of 25 μL of 1× compound with 3×EC80 agonist using FLIPR. For both agonist and antagonist formats, activity was measure on a FLIPR Tetra (MDS). Calcium mobilization was monitored for 2 min with a 5 sec baseline read.
FLIPR read—Area under the curve, was calculated for the entire 2 min read. Compound activity was analysed using CBIS data analysis suite (ChemInnovation, CA).

Like-named read-outs stand apart in the source and are kept apart here.

T2 sequence (P35968 20-1356): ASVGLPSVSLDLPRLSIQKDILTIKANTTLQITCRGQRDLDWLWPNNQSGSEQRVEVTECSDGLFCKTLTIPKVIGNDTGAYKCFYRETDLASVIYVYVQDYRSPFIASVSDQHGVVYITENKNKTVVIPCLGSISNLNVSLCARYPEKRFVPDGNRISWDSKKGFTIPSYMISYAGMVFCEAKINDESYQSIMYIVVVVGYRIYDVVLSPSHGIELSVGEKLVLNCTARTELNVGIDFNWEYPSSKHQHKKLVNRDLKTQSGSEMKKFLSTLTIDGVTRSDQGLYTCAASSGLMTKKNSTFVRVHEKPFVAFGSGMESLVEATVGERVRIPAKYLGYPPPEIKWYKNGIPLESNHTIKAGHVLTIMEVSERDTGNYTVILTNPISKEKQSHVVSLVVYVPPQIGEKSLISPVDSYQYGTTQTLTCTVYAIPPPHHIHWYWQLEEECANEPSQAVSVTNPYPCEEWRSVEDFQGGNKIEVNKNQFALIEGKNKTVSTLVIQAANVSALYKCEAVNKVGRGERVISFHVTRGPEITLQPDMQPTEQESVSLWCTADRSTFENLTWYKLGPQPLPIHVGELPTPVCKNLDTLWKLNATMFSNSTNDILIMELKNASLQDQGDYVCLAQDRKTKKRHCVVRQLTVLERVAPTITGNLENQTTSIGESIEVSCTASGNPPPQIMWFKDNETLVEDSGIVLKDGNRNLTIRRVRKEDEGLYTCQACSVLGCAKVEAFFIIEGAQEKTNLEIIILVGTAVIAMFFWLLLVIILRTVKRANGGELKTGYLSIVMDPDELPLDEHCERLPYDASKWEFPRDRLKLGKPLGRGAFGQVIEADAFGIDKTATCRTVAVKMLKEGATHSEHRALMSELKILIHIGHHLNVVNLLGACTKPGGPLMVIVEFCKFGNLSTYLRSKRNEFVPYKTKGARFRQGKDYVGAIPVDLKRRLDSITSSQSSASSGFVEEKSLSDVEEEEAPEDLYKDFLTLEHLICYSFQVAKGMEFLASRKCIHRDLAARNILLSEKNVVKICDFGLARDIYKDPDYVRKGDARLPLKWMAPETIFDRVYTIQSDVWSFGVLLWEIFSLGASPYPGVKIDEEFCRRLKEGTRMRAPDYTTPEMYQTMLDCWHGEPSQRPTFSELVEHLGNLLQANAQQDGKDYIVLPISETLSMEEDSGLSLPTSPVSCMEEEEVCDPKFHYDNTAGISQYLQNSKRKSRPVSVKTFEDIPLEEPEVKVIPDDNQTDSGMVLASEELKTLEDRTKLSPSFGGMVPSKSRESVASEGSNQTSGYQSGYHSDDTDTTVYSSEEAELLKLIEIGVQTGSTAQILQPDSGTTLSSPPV
Sequence of GABAA (P14867 28-456): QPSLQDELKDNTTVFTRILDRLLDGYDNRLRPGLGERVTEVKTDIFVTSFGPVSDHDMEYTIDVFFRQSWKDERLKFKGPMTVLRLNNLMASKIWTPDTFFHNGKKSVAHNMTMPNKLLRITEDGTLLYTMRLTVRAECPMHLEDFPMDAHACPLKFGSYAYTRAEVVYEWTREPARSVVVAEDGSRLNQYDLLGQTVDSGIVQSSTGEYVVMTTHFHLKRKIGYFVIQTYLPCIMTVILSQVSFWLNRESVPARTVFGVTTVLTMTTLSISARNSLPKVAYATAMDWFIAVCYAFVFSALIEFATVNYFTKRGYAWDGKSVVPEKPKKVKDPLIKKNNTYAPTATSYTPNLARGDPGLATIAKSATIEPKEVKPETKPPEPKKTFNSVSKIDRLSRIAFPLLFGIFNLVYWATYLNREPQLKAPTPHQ
Sequence of GABAA (P47870 26-512): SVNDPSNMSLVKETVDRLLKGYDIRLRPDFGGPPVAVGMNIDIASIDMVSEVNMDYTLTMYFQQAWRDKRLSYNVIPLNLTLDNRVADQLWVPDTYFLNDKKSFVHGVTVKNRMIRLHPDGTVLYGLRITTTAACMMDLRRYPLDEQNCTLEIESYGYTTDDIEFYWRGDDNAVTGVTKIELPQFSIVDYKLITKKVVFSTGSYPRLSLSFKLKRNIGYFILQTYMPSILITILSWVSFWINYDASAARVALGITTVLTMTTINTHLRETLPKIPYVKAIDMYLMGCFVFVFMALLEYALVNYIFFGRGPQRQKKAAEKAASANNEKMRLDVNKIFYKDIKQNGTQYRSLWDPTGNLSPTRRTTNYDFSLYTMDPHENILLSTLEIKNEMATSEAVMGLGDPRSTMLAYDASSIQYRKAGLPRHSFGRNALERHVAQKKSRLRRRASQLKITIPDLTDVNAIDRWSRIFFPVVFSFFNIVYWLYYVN
Sequence of GABAA (P18507 40-475): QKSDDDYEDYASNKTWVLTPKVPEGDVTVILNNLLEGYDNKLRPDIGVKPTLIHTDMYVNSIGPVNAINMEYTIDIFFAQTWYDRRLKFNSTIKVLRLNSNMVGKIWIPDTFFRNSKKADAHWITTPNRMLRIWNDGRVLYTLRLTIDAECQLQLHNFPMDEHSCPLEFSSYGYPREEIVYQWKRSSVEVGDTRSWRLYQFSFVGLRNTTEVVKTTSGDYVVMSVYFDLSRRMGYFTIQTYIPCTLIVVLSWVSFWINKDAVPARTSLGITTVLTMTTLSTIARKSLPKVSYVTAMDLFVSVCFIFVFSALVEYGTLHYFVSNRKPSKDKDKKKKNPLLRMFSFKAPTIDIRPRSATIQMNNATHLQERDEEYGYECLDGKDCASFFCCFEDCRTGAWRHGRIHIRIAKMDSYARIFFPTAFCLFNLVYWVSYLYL

Turning to `CC(C)(C)c1ccc(C#CC(O)c2ccccc2)cc1` (racemic) [Compound 3.3, rac-3-(4-(tert-butyl)phenyl)-1-phenylprop-2-yn-1-ol], the Emax in test [1] is 8.7%; in test [2] it was 0.2%; in test [3] it was 0%; in test [4] it was 73.9%; in test [5] it was 0%. In addition, the EC50 in test [2] (Calcium Flux CCKAR Agonist) was over 10 µM. The IC50 was over 10 µM in test [3] (Binding VEGFR2 Inhibitor), 6.9 µM in test [4] and over 10 µM in test [5].
Regarding `Clc1cccc(C#Cc2n[nH]c3ncccc23)c1` [Compound 10.1, 3-((3-chlorophenyl)ethynyl)-1H-pyrazolo[3,4-b]pyridine], the Emax amounted to 5.2% in test [1]; 0.3% in test [2] (Calcium Flux CCKAR Agonist); 5.4% in test [3] (Binding VEGFR2 Inhibitor); 1.5% in test [4]; 0% in test [5]. The EC50 in test [2] (Calcium Flux CCKAR Agonist) was over 10 µM. The IC50 in test [3] (Binding VEGFR2 Inhibitor), in test [4] and in test [5] was over 10 µM in each case.

As usually defined, the EC50 is the concentration giving half of the maximal effect. Broadly, the IC50 is the concentration needed to halve the response being measured.
